From patent US11236046B2, “Substituted heterocyclic sulfonamide compounds useful as TRPA1 modulators” (Genentech, Inc., priority 2013, dated 2022)

Molecular target: human TRPA1 (Homo sapiens (Human), UniProt O75762)
Assay: FLIPR Tetra calcium influx assay, block of cinnamaldehyde-induced calcium influx in CHO cells expressing TRPA1 (human)
Assay type: cell-based
Conditions: 20 min compound incubation, 75 uM cinnamaldehyde (~EC80), Hill coefficient fixed to 1.5, read-out: hTRPA1 AUC IC50
Method: IC50 Determinations of Exemplified Compounds.
IC50s (effective concentration) of compounds on the human and rat TRPA1 channels were determined using a FLIPR Tetra instrument. CHO cells expressing TRPA1 were plated into 384-well plates, incubated overnight at 37C, and loaded with BD calcium indicator dye for 1 hr at 37° C. followed by 15 minutes. at room temperature. The assay buffer was Hank's Balanced Salt Solution (HBSS) containing 20 mM HEPES (pH readjusted to 7.4) along with 0.02% BSA.
Following dye load and plate cool down, compounds were added to the cells using FLIPR Tetra. Plates were then incubated with compounds for 20 minutes at room temperature prior to adding agonist. Following this incubation, ˜EC80 concentration of cinnamaldehyde (75 uM for human TRPA1 and 45 uM for rat TRPA1) was added to active the channels and block of cinnamaldehyde induced calcium influx was measured.
Fixing the Hill coefficient will generally reduce variability of the IC50 determination. The IC50s were individually examined to make sure the MIN and MAX points were set correctly prior to validation of the results.

human TRPA1, sequence (O75762 whole entry): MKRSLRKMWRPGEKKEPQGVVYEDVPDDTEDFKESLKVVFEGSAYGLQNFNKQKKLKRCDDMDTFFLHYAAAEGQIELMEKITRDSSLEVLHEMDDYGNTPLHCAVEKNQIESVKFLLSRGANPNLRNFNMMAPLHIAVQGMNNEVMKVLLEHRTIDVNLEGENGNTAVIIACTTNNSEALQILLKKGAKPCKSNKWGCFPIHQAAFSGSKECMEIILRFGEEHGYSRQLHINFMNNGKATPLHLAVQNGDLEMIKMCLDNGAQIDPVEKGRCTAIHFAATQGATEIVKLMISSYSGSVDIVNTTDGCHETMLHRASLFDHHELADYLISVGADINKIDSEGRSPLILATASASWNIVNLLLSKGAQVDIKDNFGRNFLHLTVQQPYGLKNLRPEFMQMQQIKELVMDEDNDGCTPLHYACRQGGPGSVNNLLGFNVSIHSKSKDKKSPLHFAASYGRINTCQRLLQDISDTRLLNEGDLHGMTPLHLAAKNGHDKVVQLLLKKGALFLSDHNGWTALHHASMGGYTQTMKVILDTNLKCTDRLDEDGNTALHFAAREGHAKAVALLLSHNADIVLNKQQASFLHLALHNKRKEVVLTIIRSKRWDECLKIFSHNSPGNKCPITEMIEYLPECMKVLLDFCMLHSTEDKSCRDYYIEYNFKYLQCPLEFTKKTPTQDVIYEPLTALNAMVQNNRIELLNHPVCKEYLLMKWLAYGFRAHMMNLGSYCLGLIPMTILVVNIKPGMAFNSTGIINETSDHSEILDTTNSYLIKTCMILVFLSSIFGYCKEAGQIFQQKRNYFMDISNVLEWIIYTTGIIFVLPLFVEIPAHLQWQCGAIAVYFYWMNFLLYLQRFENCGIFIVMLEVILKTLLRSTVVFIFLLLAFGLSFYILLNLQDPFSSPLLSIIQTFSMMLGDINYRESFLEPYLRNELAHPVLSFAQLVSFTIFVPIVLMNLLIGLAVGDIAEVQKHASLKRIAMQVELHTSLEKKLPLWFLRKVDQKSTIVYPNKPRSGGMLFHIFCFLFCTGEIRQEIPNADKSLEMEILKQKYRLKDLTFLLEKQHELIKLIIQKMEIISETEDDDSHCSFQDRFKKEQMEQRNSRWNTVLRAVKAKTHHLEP

| IC50 | SMILES |
| --- | --- |
| 0.068 µM | COc1nn(-c2ccc(C(F)(F)F)nc2)cc1CNC(=O)[C@@H]1C[C@@H](F)CN1S(=O)(=O)c1ccc(F)cc1 [Example 153, (2S,4R)-4-fluoro-1-[(4-fluorobenzene)sulfonyl]-N-([3-methoxy-1-[6-(trifluoromethyl)pyridin-3-yl]-1H-pyrazol-4-yl]methyl)pyrrolidine-2-carboxamide] |
| 0.039 µM | O=C(NCc1cc(F)cc(-c2ccc(OC(F)F)nc2)c1)[C@@H]1C[C@@H](F)CN1S(=O)(=O)c1ccc(F)cc1 [Example 76, (2S,4R)—N-([3-[6-(difluoromethoxy)pyridin-3-yl]-5-fluorophenyl]methyl)-4-fluoro-1-[(4-fluorobenzene)sulfonyl]pyrrolidine-2-carboxamide] |
| 0.055 µM | N#Cc1cnc(-c2cnc(C(F)(F)F)nc2)cc1CNC(=O)[C@@H]1C[C@@H](F)CN1S(=O)(=O)c1ccc(F)cc1 [Example 189, (2S,4R)—N-([5-cyano-2-[2-(trifluoromethyl)pyrimidin-5-yl]pyridin-4-yl]methyl)-4-fluoro-1-[(4-fluorobenzene)sulfonyl]pyrrolidine-2-carboxamide] |
| 0.018 µM | O=C(NCc1ccnc(-c2ccc(OC(F)(F)F)cc2)c1)[C@@H]1C[C@@H](F)CN1S(=O)(=O)c1ccc(F)cc1 [Example 159, (2S,4R)-4-fluoro-1-(4-fluorophenyl)sulfonyl-N-[[2-[4-(trifluoromethoxy)phenyl]-4-pyridyl]methyl]pyrrolidine-2-carboxamide] |
| 0.211 µM | O=C(NCc1cc(-c2cnc(C(F)(F)F)nc2)cnc1F)[C@@H]1C[C@@H](F)CN1S(=O)(=O)c1ccc(F)cc1 [Example 171, (2S,4R)-4-fluoro-1-(4-fluorophenyl)sulfonyl-N-[[2-fluoro-5-[2-(trifluoromethyl)pyrimidin-5-yl]-3-pyridyl]methyl]pyrrolidine-2-carboxamide] |
| 0.013 µM | O=C(NCc1cc(-c2cnc(C(F)(F)F)cn2)ccc1F)[C@@H]1C[C@@H](F)CN1S(=O)(=O)c1ccc(F)cc1 [Example 54, (2S,4R)-4-fluoro-N-(2-fluoro-5-(5-(trifluoromethyl)pyrazin-2-yl)benzyl)-1-((4-fluorophenyl)sulfonyl)pyrrolidine-2-carboxamide] |
| 0.152 µM | Cc1cc(-c2cnc(C(F)(F)F)nc2)cc(CNC(=O)[C@@H]2C[C@@H](F)CN2S(=O)(=O)c2ccc(F)cc2)n1 [Example 48, (2S,4R)-4-fluoro-1-(4-fluorophenyl)sulfonyl-N-[[6-methyl-4-[2-(trifluoromethyl)pyrimidin-5-yl]-2-pyridyl]methyl]pyrrolidine-2-carboxamide] |
| 0.192 µM | O=C(NCc1cc(F)cc(C2CCC(C(F)(F)F)CN2)c1)[C@@H]1C[C@@H](F)CN1S(=O)(=O)c1ccc(F)cc1 (stereo partly drawn) [Example 74, (2S,4R)-4-fluoro-1-(4-fluorophenyl)sulfonyl-N-[[3-fluoro-5-[5-(trifluoromethyl)-2-piperidyl]phenyl]methyl]pyrrolidine-2-carboxamide] |
| 0.026 µM | O=C(NCc1cc(-c2ccc(C(F)(F)F)c(F)c2)ncn1)[C@@H]1C[C@@H](F)CN1S(=O)(=O)c1ccc(F)cc1 [Example 114, (2S,4R)-4-fluoro-N-([6-[3-fluoro-4-(trifluoromethyl)phenyl]pyrimidin-4-yl]methyl)-1-[(4-fluorobenzene)sulfonyl]pyrrolidine-2-carboxamide] |
| 0.771 µM | O=C(NCc1cc(F)cc(-n2ccc(C(F)(F)F)cc2=O)c1)[C@@H]1C[C@@H](F)CN1S(=O)(=O)c1ccc(F)cc1 [Example 85, (2S,4R)-4-fluoro-N-[[3-fluoro-5-[2-oxo-4-(trifluoromethyl)-1-pyridyl]phenyl]methyl]-1-(4-fluorophenyl)sulfonyl-pyrrolidine-2-carboxamide] |

| SMILES | IC50 |
| --- | --- |
| COc1nc(CNC(=O)[C@@H]2C[C@@H](F)CN2S(=O)(=O)c2ccc(F)cc2)cc(-c2ccc(C(F)(F)F)nc2)n1 [Example 127, (2S,4R)-4-fluoro-1-[(4-fluorobenzene)sulfonyl]-N-([2-methoxy-6-[6-(trifluoromethyl)pyridin-3-yl]pyrimidin-4-yl]methyl)pyrrolidine-2-carboxamide] | 0.097 µM |
